One may read the MIC as the least concentration at which growth counts as inhibited.

Where two headings read alike, the source gives them in different places.

One experiment deals with B. subtilis DSM 29870. The experiment can be described thus: MIC of antibiotics by broth micro dilution (CLSI M07-A9). Conditions: Bacillus subtilis.
A further experiment concerns S. aureus ATCC 29213. Put plainly: MIC of antibiotics by broth micro dilution (CLSI M07-A9), control strain. Particulars: Staphylococcus aureus.

As for `CN[C@H](CC(C)C)C(=O)N[C@H]1C(=O)N[C@@H](CC(N)=O)C(=O)N[C@H]2C(=O)N[C@H]3C(=O)N[C@H](C(=O)N[C@H](C(=O)O)c4cc(O)cc(O)c4-c4cc3ccc4O)[C@H](O)c3ccc(c(Cl)c3)Oc3cc2cc(c3O[C@@H]2O[C@H](CO)[C@@H](O)[C@H](O)[C@H]2O[C@H]2C[C@](C)(N)[C@H](O)[C@H](C)O2)Oc2ccc(cc2Cl)[C@H]1O` [Vancomycin], the MIC came out at 0.25 µg/mL in the experiment on B. subtilis DSM 29870 (DSM29870, read-out: MIC 1); 0.25 µg/mL with B. subtilis DSM 29870 (DSM29870, read-out: MIC 2); 0.25 µg/mL in the experiment on B. subtilis DSM 29870 (DSM29870, read-out: MIC 3); 0.5 µg/mL in the experiment with S. aureus ATCC 29213 (ATCC29213, read-out: MIC 1); 1 µg/mL in the experiment with S. aureus ATCC 29213 (ATCC29213, read-out: MIC 2); 1 µg/mL with S. aureus ATCC 29213 (ATCC29213, read-out: MIC 3).

Source of the values: patent US11473052B2, “Bacillus subtilis subspecies” (Novozymes A/S, priority 2015, dated 2022).
